Assay results: ChEMBL document CHEMBL5113400, “Design, synthesis, and biological evaluation of trizole-based heteroaromatic derivatives as Bcr-Abl kinase inhibitors” (Eur J Med Chem, 2022)

Columns and labels:
[1] = molecular target: Bcr/Abl fusion protein (Homo sapiens, UniProt P00519, T315I); assay: Inhibition of Bcr-Abl T315I mutant (unknown origin) incubated for 1 hr in presence of ATP by ADP-Glo kinase assay; assay type: protein assay
[2] = tested on: BaF3; assay: Antiproliferative activity against mouse BaF3 cells expressing Bcr-Abl T315I mutant assessed as inhibition of cell growth at 30 uM incubated for 72 hrs by CellTiter-Glo luminescent assay; assay type: functional
[3] = molecular target: Bcr/Abl fusion protein (Homo sapiens, UniProt P00519); assay: Inhibition of wild type Bcr-Abl (unknown origin) incubated for 1 hr in presence of ATP by ADP-Glo kinase assay; assay type: protein assay
[4] = tested on: K562; assay: Antiproliferative activity against human K562 cells assessed as inhibition of cell growth incubated for 48 hrs by MTT assay; assay type: functional, cell-based; settings: K562, 48 h
[5] = tested on: K562/Adr; assay: Antiproliferative activity against human Adriamycin-resistant K562/Adr cells assessed as inhibition of cell growth incubated for 48 hrs by MTT assay; assay type: functional, cell-based

IC50 [1] [nM] | IC50 [3] [nM] | IC50 [4] [µM] | IC50 [5] [µM] | Compound | inhibition at 30 µM [2] [%]
343 | 5.85 | 3.83 | 1 | CC(=O)Nc1n[nH]c2cc(-c3cn([C@@H]4CN[C@H](C(=O)Nc5ccc(Br)cc5)C4)nn3)ccc12 | 21.8
84.8 | 8.71 | 0.18 | 12.6 | CCN1CCN(c2cc(NC(=O)[C@@H]3C[C@H](n4cc(-c5ccc6c(N)n[nH]c6c5)nn4)CN3)ccc2Cl)CC1 | 20

Further lines, the compound ahead of its results:

Compound | IC50 [1] [nM] | IC50 [3] [nM] | IC50 [4] [µM] | IC50 [5] [µM] | inhibition at 30 µM [2] [%]
O=C(NC1CC1)c1cncc(-c2cn([C@@H]3CN[C@H](C(=O)Nc4ccc(Cl)c(C(F)(F)F)c4)C3)nn2)c1 | 31.5 | 1.94 | 0.82 | 175 | 24.6
CC(C)(C)OC(=O)N1C[C@@H](n2cc(-c3ccc4nc(N)sc4n3)nn2)C[C@H]1C(=O)Nc1ccc(F)c(F)c1 | 487 | 17.4 | 26.4 | 63.9 | 16.8
C=CC(=O)Nc1ccc(-c2cn([C@@H]3CN[C@H](C(=O)Nc4ccc(Cl)c(C(F)(F)F)c4)C3)nn2)cn1 | 140 | 9.26 | 3.86 | 80.4 | 26
